Reference: PubChem BioAssay (NCI)
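Values below derive from 48-hour exposures of cells grown in 96-well plates, with endpoints linearly interpolated between the two concentrations bracketing the appropriate inhibition level. TGI is the concentration that stops growth completely.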

Assays:
Assay in all cases: DTP human tumour cell line panel, 48 h
BT-549 breast = system: BT-549 breast
CCRF-CEM leukemia = system: CCRF-CEM leukemia
HCC-2998 colon = system: HCC-2998 colon
HCT-116 colon = system: HCT-116 colon
HT29 colon = system: HT29 colon
KM12 colon = system: KM12 colon
M14 melanoma = system: M14 melanoma
MDA-MB-231 breast = system: MDA-MB-231 breast
NCI-H23 lung = system: NCI-H23 lung
NCI-H460 lung = system: NCI-H460 lung
NCI/ADR-RES ovarian = system: NCI/ADR-RES ovarian
SR leukemia = system: SR leukemia
UACC-257 melanoma = system: UACC-257 melanoma
UACC-62 melanoma = system: UACC-62 melanoma
COLO 205 colon = system: COLO 205 colon

SMILES	TGI (BT-549 breast) [µM]	TGI (CCRF-CEM leukemia) [µM]	TGI (HCC-2998 colon) [µM]	TGI (HCT-116 colon) [µM]	TGI (HT29 colon) [µM]	TGI (KM12 colon) [µM]	TGI (M14 melanoma) [µM]	TGI (MDA-MB-231 breast) [µM]	TGI (NCI-H23 lung) [µM]	TGI (NCI-H460 lung) [µM]	TGI (NCI/ADR-RES ovarian) [µM]	TGI (SR leukemia) [µM]	TGI (UACC-257 melanoma) [µM]	TGI (UACC-62 melanoma) [µM]	TGI (COLO 205 colon) [µM]
Nc1nonc1-c1noc(-c2nonc2N)[n+]1[O-]	> 100	32.8	> 100	> 100	33.6	> 100	> 100	> 100	> 100	> 100	> 100	> 100	> 100	> 100	–
O=C(CN1CCOCC1)NC1=Nc2ncccc2C(=O)NN1	> 10	> 10	–	> 10	> 10	> 10	> 10	> 10	> 10	> 10	–	> 10	> 10	> 10	–
COC(=O)C1=C(C(=O)OC)C2(/N=C(\Nc3ccccc3)c3ccccc3)N(c3ccc(OC)cc3)CC(c3ccccc3)N2O1 (stereo not drawn)	> 100	> 100	–	> 100	> 100	> 100	> 100	> 100	> 100	> 100	> 100	> 100	> 100	> 100	> 100
O=C1C=CC(=O)c2c(O)c(Nc3ccc(OC(F)(F)F)cc3)c(Cl)c(O)c21	3.12	4.32	1.27	0.455	1.28	2.95	1.22	1.41	0.708	3.6	4.57	–	7.95	2.29	2.84
O=c1oc2ccccc2c(O)c1C(c1ccc([N+](=O)[O-])cc1)c1c(O)c2ccccc2oc1=O	> 100	> 100	–	> 100	> 100	> 100	–	> 100	> 100	> 100	> 100	–	> 100	> 100	> 100
CN(C)CCCNC(=O)c1cc(NC(=O)CCCn2c3ccccc3c3ccccc32)cn1C	> 100	> 100	–	> 100	> 100	> 100	> 100	> 100	> 100	> 100	> 100	–	–	> 100	59.8
CCCCCCCCCCCCCC/C(=C/OCC[N+](C)(C)C)OC(C)=O (tested in a mixture with another compound)	5.85	3.67	13.4	11.2	1.82	–	7.12	4.83	7.65	–	44.2	4.57	8.91	5.25	5.08
CCOC(=O)c1c2ccccc2n2c(=O)n(C)nnc12	> 100	> 100	> 100	> 100	–	> 100	> 100	> 100	> 100	> 100	> 100	> 90.7	> 100	> 100	> 100
C[C@H](C(=O)N1C(=O)O[C@@H](c2ccccc2)[C@H]1C)[C@H](c1ccccc1)N(Cc1ccccc1)OC(=O)c1ccccc1	> 100	> 100	85.3	> 100	> 100	> 100	> 100	> 100	> 100	> 100	> 100	–	> 100	> 100	> 100
COc1ccc(C(F)(F)F)cc1NC(=O)O/N=C(/Cl)C(C)C	41.3	31.9	39.3	35.4	53.3	> 60.2	36	37.4	40.2	> 64.2	56.5	–	42.5	36.7	4.1
O=C1CC(CC(O)C(O)CO)CC(=O)N1 (stereo not drawn)	> 100	> 100	> 100	> 100	> 100	> 100	> 100	> 100	> 100	> 100	> 100	–	> 100	–	–
CCOC(=O)C1C(=O)CC(C)(O)C(C(=O)OCC)C1c1ccc(O)c(OC)c1 (stereo not drawn)	> 100	> 100	> 100	> 100	> 100	> 100	–	> 100	> 100	> 100	> 100	> 100	> 100	> 100	> 100
c1ccc(N=C2SC(c3ccccc3)CN2C23CC4CC(CC(C4)C2)C3)cc1 (stereo not drawn)	> 100	> 100	> 100	> 100	> 100	> 100	> 100	> 100	> 100	> 100	> 100	> 100	> 100	–	> 100
Cn1c2nc(=Nc3ccc(Cl)cc3)n3ccc4ccccc4c3c2c(=O)n1-c1ccccc1	> 100	–	> 100	> 100	> 100	> 100	–	> 100	> 100	> 100	> 100	> 100	> 100	> 100	> 100
COC(=O)C1=C(O)C(C(=O)OC)[C@@]2(O)[C@@H](C(=O)OC)C(c3ccc(OC(=O)/C(=C/c4ccccc4)c4ccccc4)cc3)C[C@@H]1[C@@H]2C(=O)OC (stereo partly drawn)	> 100	> 100	–	> 100	> 100	> 100	33	> 100	> 100	> 100	> 100	> 100	> 100	17.2	> 100
COC(=O)c1ccc(NCc2cc(O)c3ccccc3c2O)cc1	30.7	16.3	39.9	38.4	48.5	> 50	–	6.02	30.3	24.5	94.3	21.7	20.5	10.3	25.4
N#C/C(=C\N1CCNC1=S)C(=O)c1ccc2ccccc2c1	> 100	–	> 100	> 100	> 100	> 100	> 100	> 100	> 100	> 100	> 100	> 100	> 100	> 100	> 100
